From patent US9879050B2, “Substituted urea depsipeptide analogs as activators of the CLPP endopeptidase” (priority 2013, dated 2018)
≈ marks a conversion by molar mass, not a printed value. Read-outs that look alike come from different tables or passages of the source. *1 amine or outer side, *2 acyl side, *3 side chain or, on linkers, in order; H or OH if unused. Where a SMILES comes first, the peptide text is derived from it. Bridges are numbered along the chain shown (N, C = ends). [ ]: non-standard residue; d: D form. The star is where a group is joined. Phe(3,5-F2) = N[C@@H](Cc1cc(F)cc(F)c1)C(=O)O; NHPh(4-CF3) = FC(F)(F)c1ccc(N*)cc1; Heptenoyl(2E) = CCCC/C=C/C(=O)*; aThr = C[C@H](O)[C@H](N)C(=O)O; Pip = O=C(O)[C@@H]1CCCCN1; CO = O=C([*:1])[*:2]

Assays:
[1] = Cytotoxicity assay, CellTiter-Glo cell viability; assay type: cell-based; settings: African green monkey
Procedure, shortened: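 Vero cells seeded overnight at 37 °C in DMEM with 10% FBS, then exposed to serial dilutions of compound for 72 h. Viability read by CellTiter-Glo luminescence; IC50 from duplicates, given as the range of two independent experiments.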

S. aureus USA 300 ΔClpP = assay: Minimal inhibitory concentration, microbroth dilution; assay type: cell-based, Staphylococcus aureus; settings: ClpP inactivated strain
Procedure, shortened: (§1)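 Susceptibility testing used the CLSI dilution standard, with bacteria at ~10^5 cfu/mL exposed to a two-fold compound series beginning at 200 μM final. The endpoint is the lowest concentration showing no growth after overnight incubation (37 °C, aerobic).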

S. pneumoniae R6 = assay: as above; assay type: cell-based
Procedure, shortened: (§2)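 Twofold serial dilutions in broth per CLSI M7-A7 microbroth dilution, incubated aerobically overnight at 37° C. MIC read visually as lowest concentration preventing bacterial growth.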

E. faecails ATCC 33186 = assay: as above; assay type: cell-based; settings: Enterococcus faecalis, ATCC33186, read-out: Minimal Inhibitory Concentration E. faecails ATCC 33186
Procedure, shortened: as §1

S. pneumoniae DAW27 = assay: as above; assay type: cell-based; settings: Streptococcus pneumoniae, DAW27, read-out: Minimal Inhibitory Concentration S. pneumoniae DAW27
Procedure, shortened: as §1

S. pyogenes ATCC 700294 = assay: as above; assay type: cell-based; settings: Streptococcus pyogenes, ATCC700294, read-out: Minimal Inhibitory Concentration S. pyogenes ATCC 700294
Procedure, shortened: as §2

S. aureus ClpP (Sa-ClpP) = biological target: T1, S. aureus ClpP (Sa-ClpP) (Staphylococcus aureus, UniProt Q2G036); assay: ClpP activation, casein-BODIPY digestion assay (first described method); assay type: biochemical
T1 construct: made in house; host or cells: E. coli BL21 (DE3)
Procedure, shortened: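 Purified E. coli-expressed Sa-ClpP (10 μM) with 25 μg/ml BODIPY FL casein and 0-100 μM compound in 50 mM Tris pH 8, 200 mM KCl, 1 mM TCEP at 37° C. Fluorescence (ex 485/em 528 nm) read every 5 min over 45 min; velocities fit to dose-response for EC50 of 50% activation, in triplicate.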

[2] = Vero cells, 72 hours, read-out: Cytotoxicity IC50
[3] = Streptococcus pneumoniae, R6; read-out: Minimal Inhibitory Concentration S. pneumoniae R6
[4] = first described ClpP activation assay (**), 10 μM saClpP, 25 μg/ml BODIPY FL casein, 37° C., read-out: ClpP Activation EC50
[5] = Streptococcus pneumoniae, R6, read-out: Minimal Inhibitory Concentration S. pneumoniae R6

T1 sequence (Q2G036 whole entry): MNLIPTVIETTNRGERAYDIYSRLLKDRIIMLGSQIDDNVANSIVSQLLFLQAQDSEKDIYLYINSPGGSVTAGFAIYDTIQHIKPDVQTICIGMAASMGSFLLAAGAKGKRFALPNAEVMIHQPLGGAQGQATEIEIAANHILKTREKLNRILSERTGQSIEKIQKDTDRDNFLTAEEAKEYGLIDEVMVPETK

Compound	IC50 at 72 h [1, 2] [µM]	Minimal Inhibitory Concentration S. aureus USA 300 ΔClpP (S. aureus USA 300 ΔClpP) [µM]	MIC (S. pneumoniae R6; [3]) [µM]	MIC (E. faecails ATCC 33186) [µM]	MIC (S. pneumoniae DAW27) [µM]	MIC (S. pyogenes ATCC 700294) [µM]	EC50 (S. aureus ClpP (Sa-ClpP); [4]) [µM]	MIC (S. pneumoniae R6; [5]) [µM]	IC50 at 72 h [1] [µM]	EC50 (S. aureus ClpP (Sa-ClpP)) [µM]
CCCC/C=C/C(=O)N[C@@H](Cc1cc(F)cc(F)c1)C(=O)N[C@@H]1C(=O)N2CCC[C@H]2C(=O)N2CCCC[C@H]2C(=O)N[C@@H](C)C(=O)N2CCC[C@H]2C(=O)O[C@H]1C [ADEP 2719, reference compound] ({Heptenoyl(2E)}-[Phe(3,5-F2)][aThr]P[Pip]AP; ester 2-C)	37.7 ± 3.4	500	< 0.2							
C[C@@H]1C[C@H]2C(=O)OC[C@H](NC(=O)[C@H](Cc3ccccc3)NC(=O)Nc3ccc(Cl)cc3)C(=O)N3CCC[C@H]3C(=O)N3CCCC[C@H]3C(=O)N[C@@H](C)C(=O)N2C1 [Compound 3, (S)-2-(3-(4-Chlorophenyl)Ureido)-N-((2R,6S,8aS,14aS,20S,23aS)-2,6-Dimethyl-5,8,14,19,23-Pentaoxooctadecahydro-1H,5H,14H,19H-Pyrido[2,1-I]Dipyrrolo[2,1-C:2′,1′-L][1]Oxa[4,7,10,13]Tetraazacyclohexadecin-20-Yl)-3-Phenylpropanamide]	63 ± 5.8			0.2 (≈ 0.156 µg/mL)	0.2 (≈ 0.156 µg/mL)	0.39 (≈ 0.304 µg/mL)	3.3 ± 0.2			
C[C@@H]1C[C@H]2C(=O)OC[C@H](NC(=O)[C@H](Cc3ccccc3)NC(=O)Nc3ccc(N(C)C)cc3)C(=O)N3CCC[C@H]3C(=O)N3CCCC[C@H]3C(=O)N[C@@H](C)C(=O)N2C1 [Compound 5, (S)—N-((2R,6S,8aS,14aS,20S,23aS)-2,6-Dimethyl-5,8,14,19,23-Pentaoxooctadecahydro-1H,5H,14H,19H-Pyrido[2,1-1]Dipyrrolo[2,1-C:2′,1′-L][1]Oxa[4,7,10,13]Tetraazacyclohexadecin-20-Yl)-2-(3-(4-(Dimethylamino)Phenyl)Ureido)-3-Phenylpropanamide]	91.3 ± 12.7			0.78 (≈ 0.614 µg/mL)	0.39 (≈ 0.307 µg/mL)	0.78 (≈ 0.614 µg/mL)	1.3 ± 0.2			
Cc1ccc(NC(=O)N[C@@H](Cc2cc(F)cc(F)c2)C(=O)N[C@@H]2C(=O)N3CCC[C@H]3C(=O)N3CCCC[C@H]3C(=O)N[C@@H](C)C(=O)N3CCC[C@H]3C(=O)O[C@H]2C)cc1 [Compound 15, (S)-3-(3,5-Difluorophenyl)-N-((6S,8aS,14aS,20S,21 S,23aS)-6,21-Dimethyl-5,8,14,19,23-Pentaoxooctadecahydro-1H,5H,14H,19H-Pyrido[2,1-I]Dipyrrolo[2,1-C:2′,1′-L][1]Oxa[4,7,10,13]Tetraazacyclohexadecin-20-Yl)-2-(3-(P-Tolyl)Ureido)Propanamide]	39.7 ± 6.6	100		0.3 (≈ 0.238 µg/mL)		0.6 (≈ 0.476 µg/mL)	4.6 ± 0.9	0.3 (≈ 0.238 µg/mL)		
C[C@@H]1NC(=O)[C@@H]2CCCCN2C(=O)[C@@H]2CCCN2C(=O)[C@@H](NC(=O)[C@H](Cc2cc(F)cc(F)c2)NC(=O)Nc2ccc(C(F)(F)F)cc2)[C@H](C)OC(=O)[C@@H]2CCCN2C1=O [Compound 16, (S)-3-(3,5-Difluorophenyl)-N-((6S,8aS,14aS,20S,21 S,23aS)-6,21-Dimethyl-5,8,14,19,23-Pentaoxooctadecahydro-1H,5H,14H,19H-Pyrido[2,1-I]Dipyrrolo[2,1-C:2′,1′-L][1]Oxa[4,7,10,13]Tetraazacyclohexadecin-20-Yl)-2-(3-(4-(Trifluoromethyl)Phenyl)Ureido)Propanamide] ({NHPh(4-CF3)-CO}-[Phe(3,5-F2)][aThr]P[Pip]AP; ester 2-C)	74.3 ± 9	3.1		< 0.1		1.5 (≈ 1.27 µg/mL)	4.4 ± 0.7	0.8 (≈ 0.678 µg/mL)		
C[C@@H]1NC(=O)[C@@H]2CCCCN2C(=O)[C@@H]2CCCN2C(=O)[C@@H](NC(=O)[C@H](Cc2cc(F)cc(F)c2)NC(=O)Nc2ccc3c(c2)OCO3)[C@H](C)OC(=O)[C@@H]2CCCN2C1=O [Compound 17, (S)-2-(3-(Benzo[D][1,3]Dioxol-5-Yl)Ureido)-3-(3,5-Difluorophenyl)-N-((6S,8aS,14aS,20S,21 S,23aS)-6,21-Dimethyl-5,8,14,19,23-Pentaoxooctadecahydro-1H,5H,14H,19H-Pyrido[2,1-I]Dipyrrolo[2,1-C:2′,1′-L][1]Oxa[4,7,10,13]Tetraazacyclohexadecin-20-Yl)Propanamide]		200	0.8 (≈ 0.659 µg/mL)						46.5 ± 9.8	3.6 ± 0.6
Cc1ccc(NC(=O)N[C@@H](Cc2cc(F)cc(F)c2)C(=O)N[C@@H]2C(=O)N3CCC[C@H]3C(=O)N3CCCC[C@H]3C(=O)N[C@@H](C)C(=O)N3C[C@@H](C)C[C@H]3C(=O)O[C@H]2C)cc1 [Compound 18, (S)-3-(3,5-Difluorophenyl)-2-(3-(P-Tolyl)Ureido)-N-((2R,6S,8aS,14aS,20S,21S,23aS)-2,6,21-Trimethyl-5,8,14,19,23-Pentaoxooctadecahydro-1H,5H,14H,19H-Pyrido[2,1-I]Dipyrrolo[2,1-C:2′,1′-L][1]Oxa[4,7,10,13]Tetraazacyclohexadecin-20-Yl)Propanamide]	26.7 ± 3.6	100		0.8 (≈ 0.646 µg/mL)		< 0.1	7 ± 0.9	< 0.1		
C[C@H]1C[C@H]2C(=O)O[C@@H](C)[C@H](NC(=O)[C@H](Cc3cc(F)cc(F)c3)NC(=O)Nc3ccc(C(F)(F)F)cc3)C(=O)N3CCC[C@H]3C(=O)N3CCCC[C@H]3C(=O)N[C@@H](C)C(=O)N2C1 [Compound 19, (S)-3-(3,5-Difluorophenyl)-2-(3-(4-(Trifluoromethyl)Phenyl)Ureido)-N-((2R,6S,8aS,14aS,20S,21S,23aS)-2,6,21-Trimethyl-5,8,14,19,23-Pentaoxooctadecahydro-1H,5H,14H,19H-Pyrido[2,1-I]Dipyrrolo[2,1-C:2′,1′-L][1]Oxa[4,7,10,13]Tetraazacyclohexadecin-20-Yl)Propanamide]	36.8 ± 4.1	6.2		0.39 (≈ 0.336 µg/mL)		0.4 (≈ 0.345 µg/mL)	3.2 ± 0.1	0.8 (≈ 0.689 µg/mL)		
C[C@H]1C[C@H]2C(=O)O[C@@H](C)[C@H](NC(=O)[C@H](Cc3cc(F)cc(F)c3)NC(=O)Nc3ccc4c(c3)OCO4)C(=O)N3CCC[C@H]3C(=O)N3CCCC[C@H]3C(=O)N[C@@H](C)C(=O)N2C1 [Compound 20, (S)-2-(3-(Benzo[D][1,3]Dioxol-5-Yl)Ureido)-3-(3,5-Difluorophenyl)-N-((2R,6S,8aS,14aS,20S,21 S,23aS)-2,6,21-Trimethyl-5,8,14,19,23-Pentaoxooctadecahydro-1H,5H,14H,19H-Pyrido[2,1-I]Dipyrrolo[2,1-C:2′,1′-L][1]Oxa[4,7,10,13]Tetraazacyclohexadecin-20-Yl)Propanamide]		200	< 0.1						52.8 ± 4.9	1.6 ± 0.3
Cc1ccc(NC(=O)N[C@@H](Cc2ccccc2)C(=O)N[C@H]2COC(=O)[C@@H]3C[C@@H](C)CN3C(=O)[C@H](C)NC(=O)[C@@H]3CCCCN3C(=O)[C@@H]3CCCN3C2=O)cc1 [Compound 23, (S)—N-((2R,6S,8aS,14aS,20S,23aS)-2,6-Dimethyl-5,8,14,19,23-Pentaoxooctadecahydro-1H,5H,14H,19H-Pyrido[2,1-I]Dipyrrolo[2,1-C:2′,1′-L][1]Oxa[4,7,10,13]Tetraazacyclohexadecin-20-Yl)-3-Phenyl-2-(3-(P-Tolyl)Ureido)Propanamide]	74 ± 7.7			< 0.2		< 0.2	2.6 ± 0.4	< 0.2		
Cc1ccc(NC(=O)N[C@@H](Cc2cc(F)cc(F)c2)C(=O)N[C@H]2COC(=O)[C@@H]3C[C@@H](C)CN3C(=O)[C@H](C)NC(=O)[C@@H]3CCCCN3C(=O)[C@@H]3CCCN3C2=O)cc1 [Compound 24, (S)-3-(3,5-Difluorophenyl)-N-((2R,6S,8aS,14aS,20S,23aS)-2,6-Dimethyl-5,8,14,19,23-Pentaoxooctadecahydro-1H,5H,14H,19H-Pyrido[2,1-I]Dipyrrolo[2,1-C:2′,1′-L][1]Oxa[4,7,10,13]Tetraazacyclohexadecin-20-Yl)-2-(3-(P-Tolyl)Ureido)Propanamide]	93.8 ± 4.8					0.5 (≈ 0.397 µg/mL)	3.3 ± 0.2			
